Laboratory results taken from ChEMBL document CHEMBL1765006, “Synthesis and biological evaluation of novel 5-benzylidenethiazolidine-2,4-dione derivatives for the treatment of inflammatory diseases” (J Med Chem, 2011).
Calls of active or inactive are those of the source. The rule behind the calls is not given here.

Columns and labels:
[1] = biological target: T1, Nitric oxide synthase, inducible (Mus musculus) (UniProt P29477); assay: Inhibition of iNOS-mediated nitric oxide production in LPS-stimulated mouse RAW 264.7 cells treated 2 hrs before LPS challenge measured after 18 hrs by Griess reaction method relative to control; format: cell-based; parameters: concentration or dose not given beside the values; conditions: concentration not given here
T1 sequence (whole entry): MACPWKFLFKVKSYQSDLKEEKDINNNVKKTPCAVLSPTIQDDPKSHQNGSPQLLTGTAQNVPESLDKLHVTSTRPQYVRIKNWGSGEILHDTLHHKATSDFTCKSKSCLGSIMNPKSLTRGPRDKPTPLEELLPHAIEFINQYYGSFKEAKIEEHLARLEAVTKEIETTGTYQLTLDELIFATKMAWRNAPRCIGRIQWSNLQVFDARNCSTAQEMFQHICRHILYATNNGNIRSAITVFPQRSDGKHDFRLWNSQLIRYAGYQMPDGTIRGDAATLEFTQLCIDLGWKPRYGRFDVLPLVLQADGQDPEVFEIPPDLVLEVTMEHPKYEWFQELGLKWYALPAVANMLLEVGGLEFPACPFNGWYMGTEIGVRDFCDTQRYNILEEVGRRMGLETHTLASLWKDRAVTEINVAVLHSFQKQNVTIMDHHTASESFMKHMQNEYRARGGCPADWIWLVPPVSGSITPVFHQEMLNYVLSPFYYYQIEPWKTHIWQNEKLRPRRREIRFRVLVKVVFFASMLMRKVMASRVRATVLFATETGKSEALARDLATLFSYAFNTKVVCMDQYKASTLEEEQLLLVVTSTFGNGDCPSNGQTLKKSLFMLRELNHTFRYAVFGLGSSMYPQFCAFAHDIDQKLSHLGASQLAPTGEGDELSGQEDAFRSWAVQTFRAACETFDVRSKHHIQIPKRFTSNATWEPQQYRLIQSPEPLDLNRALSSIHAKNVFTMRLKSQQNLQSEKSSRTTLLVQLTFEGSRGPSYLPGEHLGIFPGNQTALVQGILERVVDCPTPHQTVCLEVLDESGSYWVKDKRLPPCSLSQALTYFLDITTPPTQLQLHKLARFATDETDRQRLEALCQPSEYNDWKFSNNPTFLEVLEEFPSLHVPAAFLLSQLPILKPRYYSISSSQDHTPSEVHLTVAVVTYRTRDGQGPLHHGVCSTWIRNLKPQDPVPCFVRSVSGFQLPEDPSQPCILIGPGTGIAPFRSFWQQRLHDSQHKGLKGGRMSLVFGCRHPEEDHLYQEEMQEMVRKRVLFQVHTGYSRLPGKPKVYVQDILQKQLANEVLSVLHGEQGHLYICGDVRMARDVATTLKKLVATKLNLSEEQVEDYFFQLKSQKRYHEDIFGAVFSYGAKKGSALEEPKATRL

[2] = biological target: T2, Prostaglandin G/H synthase 2 (Mus musculus, UniProt Q05769); assay: Inhibition of COX2-mediated PGE2 production in LPS-stimulated mouse RAW 264.7 cells after 24 hrs by ELISA; format: cell-based
T2 sequence (Q05769 whole entry): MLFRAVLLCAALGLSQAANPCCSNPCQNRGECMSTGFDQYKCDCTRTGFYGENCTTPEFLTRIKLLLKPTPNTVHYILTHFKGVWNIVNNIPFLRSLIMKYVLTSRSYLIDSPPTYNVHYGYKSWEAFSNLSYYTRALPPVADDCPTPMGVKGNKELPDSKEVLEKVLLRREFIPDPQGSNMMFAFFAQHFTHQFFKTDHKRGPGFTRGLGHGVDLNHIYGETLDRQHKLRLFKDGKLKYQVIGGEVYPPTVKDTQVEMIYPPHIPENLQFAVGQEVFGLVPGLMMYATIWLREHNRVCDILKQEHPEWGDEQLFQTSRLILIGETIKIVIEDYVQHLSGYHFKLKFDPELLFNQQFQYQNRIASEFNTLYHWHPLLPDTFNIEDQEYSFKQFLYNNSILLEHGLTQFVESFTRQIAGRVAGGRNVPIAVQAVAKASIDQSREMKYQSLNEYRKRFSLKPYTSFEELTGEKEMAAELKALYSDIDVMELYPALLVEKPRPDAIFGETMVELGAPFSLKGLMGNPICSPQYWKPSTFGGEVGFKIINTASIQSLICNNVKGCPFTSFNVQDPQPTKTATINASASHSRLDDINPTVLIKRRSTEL

RAW264.7 [3] = assay: Cytotoxicity against LPS-stimulated mouse RAW264.7 cells after 24 hrs by MTT assay; format: cell-based; conditions: RAW264.7, 24 h
[4] = biological target: T3, Nitric oxide synthase, inducible (Mus musculus, UniProt P29477)
T3 sequence (P29477 whole entry): T1 sequence (whole entry)
Description: Inhibition of iNOS in LPS-stimulated mouse RAW 264.7 cells after 2 hrs by fluorescence plate reader analysis

[5] = biological target: T3, Nitric oxide synthase, inducible; remark: listed apart in the source
RAW264.7 [6] = assay: cells; conditions: Mus musculus, RAW264.7, 24 h
Description: Cytotoxicity against mouse RAW264.7 cells after 24 hrs by MTT assay

Rattus norvegicus [7] = assay: Antiarthritic activity in heat-killed mycobacterium tuberculosis-induced Lewis rat arthritis model assessed as decrease in arthritic score at 50 mg/kg, po QD for 28; format: functional, organism-based; parameters: dose 50 mg/kg
Mus musculus [8] = species: Mus musculus; conditions: ICR, 10 mg/kg
Description: Antiinflammatory activity against acetic acid-induced vascular permeability in ICR mouse assessed as evans blue peritoneal leakage at 10 mg/kg, ip administered 30 mins before acetic acid challenge measured after 50 mins

Mus musculus [9] = assay: Antiinflammatory activity in ICR mouse assessed as inhibition of carrageenan-induced paw edema at 50 mg/kg, po administered 30 mins before carrageenan challenge measured up to 5 hrs; format: functional
[10] = Half life in Sprague-Dawley rat at 50 mg/kg, po; format: ADME, organism-based; parameters: dose 50 mg/kg, route oral; conditions: in vivo
Mus musculus [11] = assay: Antiinflammatory activity in ICR mouse assessed as inhibition of carrageenan-induced paw edema at 10 mg/kg, po administered 30 mins before carrageenan challenge measured up to 5 hrs; format: functional
Rattus norvegicus [12] = assay: Antiarthritic activity in heat-killed mycobacterium tuberculosis-induced Lewis rat arthritis model assessed as increase in boy weight at 50 mg/kg, po QD for 28 relative to control; format: functional
Mus musculus [13] = assay: Antiinflammatory activity against acetic acid-induced vascular permeability in ICR mouse assessed as evans blue peritoneal leakage at 10 to 50 mg/kg, ip administered 30 mins before acetic acid challenge measured after 50 mins; format: functional, organism-based
[14] = Oral bioavailability in Sprague-Dawley rat at 50 mg/kg; format: ADME, organism-based; conditions: in vivo
Rattus norvegicus [15] = assay: AUC (0 to t) in Sprague-Dawley rat at 50 mg/kg, po; format: ADME, organism-based, Plasma; parameters: dose 50 mg/kg, route oral; conditions: in vivo
Rattus norvegicus [16] = assay: AUC (0 to t) in Sprague-Dawley rat at 10 mg/kg, iv; format: ADME, organism-based, Plasma; parameters: dose 10 mg/kg, route intravenous; conditions: in vivo
Rattus norvegicus [17] = assay: Antiarthritic activity in heat-killed mycobacterium tuberculosis-induced Lewis rat arthritis model assessed as leukocytes infiltreated into synovial tissue and synovial fluid of joints at 50 mg/kg, po QD for 28 using hematoxylin and eosin staining by microscopic analysis; format: functional, organism-based; parameters: dose 50 mg/kg
[18] = Tmax in Sprague-Dawley rat at 50 mg/kg, po; format: ADME, organism-based; parameters: dose 50 mg/kg, route oral; conditions: in vivo
[19] = Cmax in Sprague-Dawley rat at 50 mg/kg, po; format: ADME, organism-based; parameters: dose 50 mg/kg, route oral; conditions: in vivo
RAW264.7 [20] = assay: Inhibition of LPS-induced iNOS protein expression in mouse RAW264.7 cells treated 2 hrs before LPS challenge measured after 18 hrs by Western blotting; format: functional, cell-based
[21] = Cmax in Sprague-Dawley rat at 10 mg/kg, iv; format: ADME, organism-based; parameters: dose 10 mg/kg, route intravenous; conditions: in vivo
[22] = Tmax in Sprague-Dawley rat at 10 mg/kg, iv; format: ADME, organism-based; parameters: dose 10 mg/kg, route intravenous; conditions: in vivo
RAW264.7 [23] = assay: Inhibition of LPS-induced COX2 protein expression in mouse RAW264.7 cells at 12 to 24 uM treated 2 hrs before LPS challenge measured after 18 hrs by Western blotting; format: functional, cell-based
[24] = Half life in Sprague-Dawley rat at 10 mg/kg, iv; format: ADME, organism-based; parameters: dose 10 mg/kg, route intravenous; conditions: in vivo

O=C(COc1ccc(/C=C2\SC(=O)NC2=O)cc1)Nc1ccccn1
inhibition [1]: 14.6%

O=C(COc1ccc(/C=C2\SC(=O)NC2=O)cc1)Nc1ccc(F)cc1
inhibition [1]: 57.9%

COc1ccc(NC(=O)COc2ccc(/C=C3\SC(=O)NC3=O)cc2)cc1OC
inhibition [1]: 16.2%

CC(=O)c1ccc(NC(=O)COc2ccc(/C=C3\SC(=O)NC3=O)cc2)cc1
inhibition [1]: 10.2%

O=C(COc1ccc(/C=C2\SC(=O)NC2=O)cc1)Nc1ccc(F)c(Cl)c1
inhibition [1]: 36%

O=C(COc1ccc(/C=C2\SC(=O)NC2=O)cc1)Nc1ccc(C(F)(F)F)cc1
inhibition [1]: 26.6%

O=C(COc1ccc(/C=C2\SC(=O)NC2=O)cc1)Nc1cc(Cl)cc(Cl)c1
IC50 [2]: 14.8 µM
IC50 (RAW264.7 [3]): > 100 µM
IC50 [4]: 57.4 µM
IC50 [5]: 26.1 µM
IC50 (RAW264.7 [6]): > 100 µM
inhibition [1]: 72%

CN(C(=O)COc1ccc(/C=C2\SC(=O)NC2=O)cc1)c1ccccc1
inhibition [1]: 51%

O=C(COc1ccc(/C=C2\SC(=O)NC2=O)cc1)Nc1cccc2ccccc12
IC50 [2]: 16.1 µM
IC50 (RAW264.7 [3]): 55 µM
IC50 [4]: 40 µM
IC50 [5]: 20.9 µM
IC50 (RAW264.7 [6]): 62.3 µM
inhibition [1]: 70.9%

O=C(COc1ccc(/C=C2\SC(=O)NC2=O)cc1)Nc1cccc(F)c1
inhibition [1]: 41.5%

O=C(COc1ccc(/C=C2\SC(=O)NC2=O)cc1)Nc1ccc2ccccc2c1
inhibition [1]: 45.1%

COc1ccc2c(c1)c(CC(=O)O)c(C)n2C(=O)c1ccc(Cl)cc1 [INDOMETHACIN]
IC50 (RAW264.7 [3]): > 100 µM
IC50 (RAW264.7 [6]): > 100 µM
Activity (Rattus norvegicus [7]): Active
inhibition [1]: 63.2%
inhibition (Mus musculus [8]): Active

O=C(COc1ccc(/C=C2\SC(=O)NC2=O)cc1)Nc1ccccc1
inhibition [1]: 55.3%

COc1ccc(NC(=O)COc2ccc(/C=C3\SC(=O)NC3=O)cc2)cc1
inhibition [1]: 0.6%

Cc1ccc(NC(=O)COc2ccc(/C=C3\SC(=O)NC3=O)cc2)nc1
inhibition [1]: 12.5%

O=C(COc1ccc(/C=C2\SC(=O)NC2=O)cc1)Nc1ccc(Br)cc1
inhibition [1]: 23.7%

O=C(COc1ccc(/C=C2\SC(=O)NC2=O)cc1)NCc1ccccc1
inhibition [1]: 41.6%

O=C(COc1ccc(/C=C2\SC(=O)NC2=O)cc1)NC1CCCCC1
inhibition [1]: 47.8%

O=C(COc1ccc(/C=C2\SC(=O)NC2=O)cc1)Nc1ccc(Cl)cc1
inhibition [1]: 9.7%

O=C(COc1ccc(/C=C2\SC(=O)NC2=O)cc1)Nc1ccc(Cl)cc1Cl
inhibition [1]: 10%

Cc1ccc(NC(=O)COc2ccc(/C=C3\SC(=O)NC3=O)cc2)cc1
inhibition [1]: 38.4%

O=C(COc1ccc(/C=C2\SC(=O)NC2=O)cc1)Nc1cccc(Cl)c1
IC50 [2]: 4.16 µM
inhibition in vivo at 50 mg/kg (Mus musculus [9]): 36.2%
half-life [10]: 130 min
inhibition (Mus musculus [11]): Active
inhibition in vivo at 10 mg/kg (Mus musculus [11]): 33.3%
Activity (Rattus norvegicus [12]): 15.1%
IC50 (RAW264.7 [3]): > 100 µM
IC50 [4]: 23.6 µM
inhibition (Mus musculus [13]): inactive
IC50 [5]: 8.66 µM
IC50 (RAW264.7 [6]): > 100 µM
bioavailability [14]: 18.1%
AUC (Rattus norvegicus [15]): 10 uM.hr/L
inhibition [1]: 80.9%
AUC (Rattus norvegicus [16]): 11.05 uM.hr/L
Activity (Rattus norvegicus [17]): Active
Tmax [18]: 10.8 min
Cmax [19]: 15.3 µM
inhibition (RAW264.7 [20]): Dose-dependent effect
Cmax [21]: 27 µM
Tmax [22]: 4.8 min
inhibition (RAW264.7 [23]): Active
half-life [24]: 16.8 min

O=C(COc1ccc(/C=C2\SC(=O)NC2=O)cc1)Nc1ccc(F)c(F)c1
IC50 [2]: 7.12 µM
IC50 (RAW264.7 [3]): > 100 µM
IC50 [4]: 34.1 µM
IC50 [5]: 13.9 µM
IC50 (RAW264.7 [6]): > 100 µM
inhibition [1]: 83.9%
